In patent US20080125405A1, “Composition for treating or preventing olfactory disorder” (Samsung Life Public Welfare Foundation Samsung Medical …, priority 2006, published 2008):
Like-named read-outs stand apart in the source and are kept apart here.

Experiments:
[1] = system: olfactory epithelium; test: Height (thickness) of olfactory epithelium after 3-methylindole damage, H&E staining; format: in vivo, Sprague-Dawley rats; conditions: rats, 3-methylindole 150 mg/kg i.p., drug 10 mg/kg oral daily; for height of olfactory epithelium: time point not printed (first sampling, fourth day), mean±SD
Description: (§1) To collect the olfactory tissues of the test group, the reference group and the control group, the test animals of the three groups were sacrificed on the fourth day, the seventh day, the fourteenth day and the twenty eighth day after the treatment with 3-methylindole. Six test animals were sacrificed each time.
(§2) H&E staining of the tissue obtained from Example 1-2 was performed by treating the paraffin block cut into a thickness of 4 μm via the above trimming and microtomy steps of Example 1-2 with a hematoxylin solution (Zymed, USA) and an eosin solution (eosin Y, Sigma, USA). More particularly, the H&E staining was performed as follows.
(§3) The paraffin block cut into a thickness of 4 μm as described in Example 1-2, i.e. the tissue specimen, was deparaffinized by repeating a xylene treatment cycle (dipping the tissue into 100% xylene twenty times) three times, was subjected to rehydration and staining with a hematoxylin solution for 5 minutes, and then was washed thoroughly with flowing water for 15 minutes. The washed tissue specimen was subjected to differential staining in 0.25% eosin solution for 40 seconds. After the differential staining, the tissue specimen was treated with an increasing amount of alcohol from a lower concentration to a higher concentration (i.e. 50%, 70%, 95% and 100% alcohol) for 1 hour at each concentration to further carry out dehydration. The dehydrated tissue specimen was passed through xylene three times and was encapsulated by covering it with a cover slide.
(§4) To observe damage to or recovery of the olfactory mucous membrane epithelia, the heights and arrangements of the epithelia in the test groups were compared to each other after carrying out H&E staining. To perform the comparison of the heights of the olfactory epithelia, the height of the olfactory epithelium in each test group was measured by taking a photograph of the olfactory mucous membrane at both upper sides of the nasal septum at a magnitude of 200×, wherein the average height of the olfactory mucous membrane epithelium was determined by using an Image J Program (NIH). Also, to perform the comparison of the heights of the olfactory epithelia, columnar arrangement corresponding to the arrangement of the olfactory epithelial cells in each test group was determined.
After measuring the heights of the olfactory epithelia, statistical analysis of the results was performed by using the above mentioned Anova test with Bonferroni's correction.

[2] = system: olfactory epithelial cells; test: Columnar arrangement grade of olfactory epithelial cells after 3-methylindole damage, H&E staining; format: in vivo, Sprague-Dawley rats; conditions: grade 1 (not arranged) to 3 (well arranged), drug 10 mg/kg oral daily
Description: as §1, §2, §3, §4
Herein, as the grade number increases, a higher degree of regeneration is made in the olfactory mucous membranes.
Additionally, columnar arrangement of the olfactory epithelial cells in each group was determined. The columnar arrangement of each group is shown in FIG. 3 as a grade evaluated according to the above criteria.

[3] = system: olfactory receptor cells; conditions: grade 0 to 4, higher = more regeneration, drug 10 mg/kg oral daily
Description: As test animals, female white Sprague-Dawley rats (Orient Co., Korea) having a body weight of 100-150 g were used. […] The test animals were raised in raising chambers for one week.
The test animals in the test group and the reference group were subjected to intraperitoneal injection of 150 mg/kg (body weight of each test animal) of 3-methylindole (3-MI) so that their olfactory epithelia were damaged. […] To the test animals in the reference group, 10 mg/kg (body weight of each test animal) of a steroid formulation, i.e. prednisolone, dissolved in 1 cc of saline was orally administered according to the same protocol as the test group. Additionally, to the test animals in the control group, the same amount (1 cc) of saline was administered after the olfactory epithelia were damaged, according to the same protocol as the test group.
To observe the distribution of the olfactory receptor cells, immunoreactivity to protein gene product 9.5 (PGP 9.5) known to exist specifically in the olfactory nerve cells was investigated.
The immunohistological staining was performed by using a Histostain-Plus kit (Zymed, San Francisco, USA). The paraffin block cut into a thickness of 4 μm, i.e. the tissue specimen was positioned on a slide coated with poly-L-lysine and was subjected to rehydration by using a decreasing amount of alcohol gradually from 100% alcohol to distilled water. The rehydrated tissue specimen was introduced into heated 10 mM citrate buffer (pH 5.0, Sigma, USA) and was further heated in a microwave oven twice, for 5 minutes each time. Next, the heated tissue specimen was removed from the microwave oven, cooled in the 10 mM citrate buffer for 20 minutes, washed with distilled water, allowed to react with 0.05M Tris-HCl buffer (Tris buffered saline, TBS) containing 3% H2O2 added thereto for 20 minutes to remove the activity of the endogenous peroxidase, and then was washed with 0.05M Tris-HCl buffered saline three times. After removing the activity of the endogenous peroxidase, the washed tissue specimen was treated with 0.1% Triton X-100 (USB, Ohio, USA) for 15 minutes, and further washed with 0.05M Tris-HCl buffered saline three times. After the treatment with 0.1% Triton X-100, the washed tissue specimen was allowed to react with a blocking reagent (10% normal goat serum) for 30 minutes to inhibit non-specific antigen-antibody reactions. […]

[4] = fourteen days after 3-methylindole
[5] = seven days after 3-methylindole
[6] = twenty eight days after 3-methylindole

CC(C)c1c(C(=O)Nc2ccccc2)c(-c2ccccc2)c(-c2ccc(F)cc2)n1CC[C@@H](O)C[C@@H](O)CC(=O)O [atorvastatin]
thickness of olfactory epithelium [1, 4]: 58.6±16.3 μm
thickness of olfactory epithelium [1, 5]: 56.1±26.9 μm
height of olfactory epithelium [1]: 17.4±15.1 μm
thickness of olfactory epithelium [1, 6]: 63.9±20.2 μm
average grade of columnar arrangement of olfactory epithelial cells ([2]; four days after 3-methylindole): 1.0±0.5
average grade of columnar arrangement of olfactory epithelial cells [2, 4]: 1.7±0.7
average grade of columnar arrangement of olfactory epithelial cells [2, 5]: 1.7±0.3
average grade of columnar arrangement of olfactory epithelial cells [2, 6]: 2.8±0.5

C[C@]12C=CC(=O)C=C1CC[C@@H]1[C@@H]2[C@@H](O)C[C@@]2(C)[C@H]1CC[C@]2(O)C(=O)CO [prednisolone]
thickness of olfactory epithelium [1, 4]: 60.5±11.6 μm
thickness of olfactory epithelium [1, 5]: 21.1±13.4 μm
height of olfactory epithelium [1]: 9.5±4.7 μm
thickness of olfactory epithelium [1, 6]: 72.2±21.8 μm
average PGP 9.5 immunostaining grade ([3]; four days after 3-methylindole): 0.5±0.67
average PGP 9.5 immunostaining grade [3, 4]: 2.42±1.38
average PGP 9.5 immunostaining grade [3, 5]: 0.92±0.79
average PGP 9.5 immunostaining grade [3, 6]: 1.75±1.22
average grade of columnar arrangement of olfactory epithelial cells ([2]; four days after 3-methylindole): 0.9±0.3
average grade of columnar arrangement of olfactory epithelial cells [2, 4]: 1.8±0.5
average grade of columnar arrangement of olfactory epithelial cells [2, 6]: 2.5±0.4
